Where a name gives a salt, the structure may show the parent alone.
assay: Octanol/water partition coefficient (O/W coefficient) of the second component; details: 1-octanol/water 1/1 by mass; value of the second component species
Protocol: In this context, the octanol/water partition coefficient is a value calculated through the following.
A sample is dissolved in a mixture of octanol and water in a ratio by mass of 1/1, and the concentration of the substance in the octanol (Co) and the concentration of the substance in the water (Cw) are measured; then the octanol/water partition coefficient (O/W coefficient) is calculated according to equation (1) below.
O/W coefficient=Log(Co/Cw) (1)
The concentration of the substance in the octanol (Co) and the concentration of the substance in the water (Cw) are measured as follows.
The OECD test guideline is followed. More specifically, a sample is dissolved in a mixture of 1-octanol and water in a ratio by mass of 1/1, and the resulting solution is centrifuged until it completely separates into two layers. From the 1-octanol layer, an appropriate amount of octanol solution is pipetted. The tip of a syringe, into which air has been drawn in advance, is inserted into the water layer through the 1-octanol layer while the air is ejected, and the aqueous solution is sampled quickly.
For each solution, the test concentration is determined using an ion chromatograph (Metrohm, 930 Compact IC).

Going from CCCCCCC(CCCC)(CCCC)Cc1ccc(O)cc1 [Add33, 4-2,2-dibutyl-octylphenol] to CCCCCCCCCCCC(=O)NCC(C)O (stereo not shown) [Add22, lauric acid monoisopropanolamide], the “Second component Octanol/water partition coefficient” value falls from 21 to 4.

First: CCCCCCCC/C=C\CCCCCCCC(=O)N(CCO)CCO [Add1, oleic acid diethanolamide]
Second: CCCCCCCCCCCCCCCCCC(=O)N(CCO)CCO [Add21, stearic acid diethanolamide]
The “Second component Octanol/water partition coefficient” value of the first is lower: 6 for the first, 11 for the second.

same assay, conditions: 1-octanol/water (1/1 by mass)

Going from CCCCCCCCCCCCc1ccc(O)cc1 [Add32, 4-dodecylphenol] to CC(C)COC(=O)CCCCC(=O)OCC(C)C [Add11, diisobutyl adipate, reference compound], the logP falls from 5 to 4.

CCOC(=O)CC(O)(CC(=O)OCC)C(=O)OCC [Add10, triethyl citrate, reference compound] gave a logP of 0.9.

Source: patent US20230250262A1, “CELLULOSIC PARTICLE” (FUJIFILM Business Innovation Corp., priority 2022, published 2023)
